Measured values reported in patent US7138411B2, “Substituted benzopyran derivatives for the treatment of inflammation” (G.D. Searle & Co., priority 1997, dated 2006).
Structures can show the parent of a compound that is named as a salt.

melting point	Structure (SMILES)
> 300 °C	O=C(O)C1=Cc2cc(Cl)c(Oc3ccc(C(=O)O)cc3)cc2OC1C(F)(F)F (centres unmarked) (as salt: potassium) [Example 206, 7-(4-Carboxyphenoxy)-6-chloro-2-(trifluoromethyl)-2H-1-benzopyran-3-carboxylic acid]
> 300 °C	O=C(O)C1=Cc2cc(Cl)c(Oc3ccc(C(=O)O)cc3Cl)cc2OC1C(F)(F)F (centres unmarked) (as salt: potassium) [Example 207, 7-(4-Carboxy-2-chloro-phenoxy)-6-chloro-2-(trifluoromethyl)-2H-1-benzopyran-3-carboxylic acid]
288.1 to 289.2 °C	O=C(O)C1=Cc2cc(Cl)c(Oc3cccc(C(=O)O)c3)cc2OC1C(F)(F)F (centres unmarked) (as salt: potassium) [Example 208, 7-(3-Carboxyphenoxy)-6-chloro-2-(trifluoromethyl)-2H-1-benzopyran-3-carboxylic acid]
202.1 to 203.1 °C	Cc1ccc2c(c1)OC(C(F)(F)F)C(C(=O)O)=C2 (centres unmarked) [Example 3, 7-Methyl-2-trifluoromethyl-2H-1-benzopyran-3-carboxylic acid]
190.3 to 193.5 °C	O=C(O)C1=Cc2ccc(C(F)(F)F)cc2OC1C(F)(F)F (centres unmarked) [Example 4, 2,7-bis(Trifluoromethyl)-2H-1-benzopyran-3-carboxylic acid]
198.4 to 199.5 °C	O=C(O)C1=Cc2ccc(Br)cc2OC1C(F)(F)F (centres unmarked) [Example 5, 7-Bromo-2-trifluoromethyl-2H-1-benzopyran-3-carboxylic acid]
152.2 to 153.3 °C	O=C(O)C1=Cc2ccccc2OC1C(F)(F)F (centres unmarked) [Example 10, 2-Trifluoromethyl-2H-1-benzopyran-3-carboxylic acid]
197.7 to 210.1 °C	O=C(O)C1=Cc2cccc(F)c2OC1C(F)(F)F (centres unmarked) [Example 17, 8-Fluoro-2-trifluoromethyl-2H-1-benzopyran-3-carboxylic acid]
219.5 to 220.9 °C	O=C(O)C1=Cc2ccc(Cl)c(Cl)c2OC1C(F)(F)F (centres unmarked) [Example 19, 7,8-Dichloro-2-trifluoromethyl-2H-1-benzopyran-3-carboxylic acid]
161 to 163 °C	CC(C)Oc1ccc2c(c1)OC(C(F)(F)F)C(C(=O)O)=C2 (centres unmarked) [Example 20, 7-Isopropyloxy-2-trifluoromethyl-2H-1-benzopyran-3-carboxylic acid]
185.4 to 186.8 °C	CCc1cccc2c1OC(C(F)(F)F)C(C(=O)O)=C2 (centres unmarked) [Example 28, 8-Ethyl-2-trifluoromethyl-2H-1-benzopyran-3-carboxylic acid]
126 to 133 °C	Nc1ccc2c(c1)C=C(C(=O)O)C(C(F)(F)F)O2 (centres unmarked) [Example 36, 6-Amino-2-trifluoromethyl-2H-1-benzopyran-3-carboxylic acid]
187 to 189 °C	O=C(O)C1=Cc2cc([N+](=O)[O-])ccc2OC1C(F)(F)F (centres unmarked) [Example 37, 6-Nitro-2-trifluoromethyl-2H-1-benzopyran-3-carboxylic acid]
207 to 211 °C	O=C(O)C1=Cc2cc(F)cc(F)c2OC1C(F)(F)F (centres unmarked) [Example 41, 6,8-Difluoro-2-trifluoromethyl-2H-1-benzopyran-3-carboxylic acid]
214.4 to 215.4 °C	CCN(CC)c1ccc2c(c1)OC(C(F)(F)F)C(C(=O)O)=C2 (centres unmarked) [Example 48, 7-(N,N-Diethylamino)-2-trifluoromethyl-2H-1-benzopyran-3-carboxylic acid]
187.9 to 189.8 °C	NS(=O)(=O)c1ccc2c(c1)C=C(C(=O)O)C(C(F)(F)F)O2 (centres unmarked) [Example 51, 6-Aminosulfonyl-2-trifluoromethyl-2H-1-benzopyran-3-carboxylic acid]
238 to 240 °C	CCN(CC)S(=O)(=O)c1ccc2c(c1)C=C(C(=O)O)C(C(F)(F)F)O2 (centres unmarked) [Example 58, 6-N,N-Diethylaminosulfonyl-2-trifluoromethyl-2H-1-benzopyran-3-carboxylic acid]
198 to 200 °C	CC(C)(C)CC(=O)c1ccc2c(c1)C=C(C(=O)O)C(C(F)(F)F)O2 (centres unmarked) [Example 60, 6-(2,2-Dimethylpropylcarbonyl)-2-trifluoromethyl-2H-1-benzopyran-3-carboxylic acid]
195.6 to 199.1 °C	COc1c(Cl)cc2c(c1Cl)OC(C(F)(F)F)C(C(=O)O)=C2 (centres unmarked) [Example 61, 6,8-Dichloro-7-methoxy-2-trifluoromethyl-2H-1-benzopyran-3-carboxylic acid]
245.9 to 248.6 °C	O=C(O)C1=Cc2ccc3ccccc3c2OC1C(F)(F)F (centres unmarked) [Example 62, 2-Trifluoromethyl-2H-naphtho[1,2-b]pyran-3-carboxylic acid]
170 to 173 °C	O=C(O)C1=Cc2cc(S(=O)(=O)NCc3ccco3)ccc2OC1C(F)(F)F (centres unmarked) [Example 69, 6-[[(2-Furanylmethyl)amino]sulfonyl]-2-(trifluoromethyl)-2H-1-benzopyran-3-carboxylic acid]
172 to 176 °C	O=C(O)C1=Cc2cc(S(=O)(=O)Cc3ccccc3)ccc2OC1C(F)(F)F (centres unmarked) [Example 70, 6-[(Phenylmethyl)sulfonyl]-2-(trifluoromethyl)-2H-1-benzopyran-3-carboxylic acid]

melting point	Structure (SMILES)
187 to 190 °C	O=C(O)C1=Cc2cc(S(=O)(=O)NCCc3ccccc3)ccc2OC1C(F)(F)F (centres unmarked) [Example 71, 6-[[(Phenylethyl)amino]sulfonyl]-2-(trifluoromethyl)-2H-1-benzopyran-3-carboxylic acid]
175.2 to 177.6 °C	O=C(O)C1=Cc2ccc(Cl)cc2OC1C(F)(F)F (centres unmarked) [Example 72, 7-Chloro-2-trifluoromethyl-2H-1-benzopyran-3-carboxylic acid]
220 to 223 °C	O=C(O)C1=Cc2cc(Cl)cc(I)c2OC1C(F)(F)F (centres unmarked) [Example 73, 6-Chloro-8-iodo-2-(trifluoramethyl)-2H-1-benzopyran-3-carboxylic acid]
243.3 to 252.4 °C	O=Cc1cc(Cl)cc2c1OC(C(F)(F)F)C(C(=O)O)=C2 (centres unmarked) [Example 76, 6-Chloro-8-Formyl-2-(trifluoromethyl)-2H-1-benzopyran-3-carboxylic acid]
198.6 to 199.9 °C	CC(C)(C)c1cc2c(cc1Br)C=C(C(=O)O)C(C(F)(F)F)O2 (centres unmarked) [Example 77, 6-Bromo-7-(1,1-dimethylethyl)-2-(trifluoromethyl)-2H-1-benzopyran-3-carboxylic acid]
177.5 to 180.8 °C	O=C(O)C1=Cc2cc(CO)ccc2OC1C(F)(F)F (centres unmarked) [Example 80, 6-Hydroxymethyl-2-(trifluoromethyl)-2H-1-benzopyran-3-carboxylic acid]
167 to 168.6 °C	CCc1ccc2c(c1)OC(C(F)(F)F)C(C(=O)O)=C2 (centres unmarked) [Example 85, 7-Ethyl-2-trifluoromethyl-2H-1-benzopyran-3-carboxylic acid]
148.3 to 151 °C	C[S+]([O-])c1ccc2c(c1)C=C(C(=O)O)C(C(F)(F)F)O2 (centres unmarked) [Example 86, 6-(Methylsulfinyl)-2-(trifluoromethyl)-2H-1-benzopyran-3-carboxylic acid]
205.7 to 207.1 °C	O=C(O)C1=Cc2c(Cl)ccc(Cl)c2OC1C(F)(F)F (centres unmarked) [Example 87, 5,8-Dichloro-2-(trifluoromethyl)-2H-1-benzopyran-3-carboxylic acid]
170.6 to 173.2 °C	CC(C)(C)c1ccc2c(c1)C=C(C(=O)O)C(C(F)(F)F)O2 (centres unmarked) [Example 89, 6-(1,1-Dimethylethyl)-2-(trifluoromethyl)-2H-1-benzopyran-3-carboxylic acid]
76.1 to 80.1 °C	Cc1ncc(CO)c2c1OC(C(F)(F)F)C(C(=O)O)=C2 (centres unmarked) [Example 90, 5-(Hydroxymethyl)-8-methyl-2-(trifluoromethyl)-2H-pyrano[2,3-c]pyridine-3-carboxylic acid]
245.8 to 247.8 °C	O=C(O)C1=Cc2cc3c(cc2OC1C(F)(F)F)OCO3 (centres unmarked) [Example 92, 6-(Trifluoromethyl)-6H-1,3-dioxolo[4,5-g][1]benzopyran-7-carboxylic acid]
159.4 to 160.9 °C	CCOc1cccc2c1OC(C(F)(F)F)C(C(=O)O)=C2 (centres unmarked) [Example 93, 8-Ethoxy-2-trifluoromethyl-2H-1-benzopyran-3-carboxylic acid]
180.9 to 182.4 °C	O=C(O)C1=Cc2cc(Cl)c(C(F)(F)F)cc2OC1C(F)(F)F (centres unmarked) [Example 94, 6-Chloro-2,7-bis(trifluoromethyl)-2H-1-benzopyran-3-carboxylic acid]
204.5 to 206.7 °C	COc1cccc2c1C=C(C(=O)O)C(C(F)(F)F)O2 (centres unmarked) [Example 95, 5-Methoxy-2-(trifluoromethyl)-2H-1-benzopyran-3-carboxylic acid]
227.8 to 228.9 °C	O=C(O)C1=Cc2cc(Oc3ccc(Cl)cc3)cc(Cl)c2OC1C(F)(F)F (centres unmarked) [Example 100]
210.5 to 211.5 °C	CC(C)c1cccc2c1OC(C(F)(F)F)C(C(=O)O)=C2 (centres unmarked) [Example 102, 8-(1-Methylethyl)-2-trifluoromethyl-2H-1-benzopyran-3-carboxylic acid]
238.1 to 239.7 °C	N#Cc1cc(Cl)cc2c1OC(C(F)(F)F)C(C(=O)O)=C2 (centres unmarked) [Example 107, 6-Chloro-8-cyano-2-(trifluoromethyl)-2H-1-benzopyran-3-carboxylic acid]
246.9 to 247.9 °C	O=C(O)C1=Cc2cc(Cl)cc(/C=N/O)c2OC1C(F)(F)F (centres unmarked) [Example 108, 6-Chloro-8-[(hydroxyimino)methyl]-2-(trifluoromethyl)-2H-1-benzopyran-3-carboxylic acid]
174.6 to 178.9 °C	O=C(O)C1=Cc2cc(Cl)cc(CO)c2OC1C(F)(F)F (centres unmarked) [Example 109, 6-Chloro-8-(hydroxymethyl)-2-(trifluoramethyl)-2H-1-benzopyran-3-carboxylic acid]
> 300 °C	O=C(O)C1=Cc2cc(Cl)cc(-c3nc4ccccc4[nH]3)c2OC1C(F)(F)F (centres unmarked) [Example 110, 8-(1H-Benzimidazol-2-yl)-6-chloro-2-(trifluoromethyl)-2H-1-benzopyran-3-carboxylic acid]
171 to 173.5 °C	CC(C)(C)c1ccc2c(c1)OC(C(F)(F)C(F)(F)F)C(C(=O)O)=C2 (centres unmarked) [Example 111, 7-(1,1-Dimethylethyl)-2-(pentafluoroethyl)-2H-1-benzopyran-3-carboxylic acid]
